From patent publication US7799809B2, “Carboxamide compounds and their use as calpain inhibitors” (Abbott GmbH & Co. KG, priority 2006, dated 2010)

Legend:
Assay type in all cases: biochemical
cathepsin L = biological target: T1, cathepsin L (Homo sapiens, UniProt P07711); test: Cathepsin L enzyme inhibition in vitro (kinetic fluorescence assay); details: cathepsin L isolated from human liver vs calpain I
T1 construct: cathepsin L—isolated from human liver (Calbiochem #219402); purchased Calbiochem 219402; host or cells: human liver (tissue-derived)
T1 sequence (P07711 114-333): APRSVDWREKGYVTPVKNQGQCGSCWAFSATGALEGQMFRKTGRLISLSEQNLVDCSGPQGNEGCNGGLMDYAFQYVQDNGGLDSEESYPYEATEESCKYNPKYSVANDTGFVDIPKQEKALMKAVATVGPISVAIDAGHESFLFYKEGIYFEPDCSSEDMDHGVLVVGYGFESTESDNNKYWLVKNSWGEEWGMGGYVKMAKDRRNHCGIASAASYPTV
Procedure, shortened: (§1)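 Cathepsin B (0.25 nM, human liver) with 100 μM Z-Phe-Arg-AMC; L (1 nM, human liver) with 2 μM Z-Phe-Arg-AMC; S (0.5 nM, recombinant) with 20 μM Z-Val-Val-Arg-AMC. pH 6.0 MES buffer, 2.5 mM L-cysteine, room temperature. Kinetic fluorescence (ex 390/em 460 nm); apparent Ki from IC50 by Cheng-Prusoff.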

cathepsin B = biological target: T2, cathepsin B (Homo sapiens, UniProt P07858); test: Cathepsin B enzyme inhibition in vitro (kinetic fluorescence assay); details: cathepsin B isolated from human liver vs calpain I
T2 construct: cathepsin B—isolated from human liver (Calbiochem #219362); purchased Calbiochem 219362; host or cells: human liver (tissue-derived)
Procedure, shortened: as §1

cathepsin K = biological target: T3, cathepsin K (Homo sapiens, UniProt P43235); test: Cathepsin K enzyme inhibition in vitro (kinetic fluorescence assay); details: cathepsin K activated from recombinant human procathepsin K vs calpain I
T3 construct: purchased Calbiochem 342001; host or cells: E. coli
T3 sequence (P43235 115-329): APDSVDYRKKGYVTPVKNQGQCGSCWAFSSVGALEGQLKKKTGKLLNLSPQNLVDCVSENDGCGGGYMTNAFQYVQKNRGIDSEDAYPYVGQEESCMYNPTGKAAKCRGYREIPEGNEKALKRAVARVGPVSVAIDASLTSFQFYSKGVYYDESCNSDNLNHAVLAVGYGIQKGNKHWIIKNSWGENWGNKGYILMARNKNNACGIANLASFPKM

cathepsin S = biological target: T4, cathepsin S (Homo sapiens, UniProt P25774); test: Cathepsin S enzyme inhibition in vitro (kinetic fluorescence assay); details: recombinant human cathepsin S vs calpain I
T4 construct: purchased Calbiochem 219343; host or cells: E. coli
T4 sequence (P25774 115-331): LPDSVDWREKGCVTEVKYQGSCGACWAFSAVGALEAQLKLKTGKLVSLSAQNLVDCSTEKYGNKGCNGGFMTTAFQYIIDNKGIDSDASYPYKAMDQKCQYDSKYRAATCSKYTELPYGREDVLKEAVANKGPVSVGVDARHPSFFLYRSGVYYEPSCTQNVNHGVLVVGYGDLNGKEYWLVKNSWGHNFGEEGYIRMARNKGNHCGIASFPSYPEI
Procedure, shortened: as §1

N-[3-Amino-2,3-dioxo-1-(phenylmethyl)propyl]-2-[3-(3,5-dichlorophenyl)-1H-pyrazol-1-yl]pyridine-3-carboxamide [Example 89]
Sel cat. L: Ki(cathepsin L)/Ki(calpain) ratio (cathepsin L): ++ (++ means a Ki(cathepsin L)/Ki(calpain) ratio of ≧50)
Sel cat. B: Ki(cathepsin B)/Ki(calpain) ratio (cathepsin B): + (+ means 10≦Ki(cathepsin B)/Ki(calpain)<30)
Sel cat. K: Ki(cathepsin K)/Ki(calpain) ratio (cathepsin K): + (+ means 10≦Ki(cathepsin K)/Ki(calpain)<30)
Sel cat. S: Ki(cathepsin S)/Ki(calpain) ratio (cathepsin S): ++ (++ means a Ki(cathepsin S)/Ki(calpain) ratio of ≧100)

NC(=O)C(=O)C(Cc1ccccc1)NC(=O)c1cccnc1-n1ccc(-c2cccc(OC(F)(F)F)c2)n1 (centres unmarked) [Example 168, N-[3-Amino-2,3-dioxo-1-(phenylmethyl)propyl]-2-(3-{3-[(trifluoromethyl)oxy]phenyl}-1H-pyrazol-1-yl)pyridine-3-carboxamide]
Sel cat. L: Ki(cathepsin L)/Ki(calpain) ratio (cathepsin L): ++ (++ means a Ki(cathepsin L)/Ki(calpain) ratio of ≧50)
Sel cat. B: Ki(cathepsin B)/Ki(calpain) ratio (cathepsin B): + (+ means 10≦Ki(cathepsin B)/Ki(calpain)<30)
Sel cat. K: Ki(cathepsin K)/Ki(calpain) ratio (cathepsin K): + (+ means 10≦Ki(cathepsin K)/Ki(calpain)<30)
Sel cat. S: Ki(cathepsin S)/Ki(calpain) ratio (cathepsin S): ++ (++ means a Ki(cathepsin S)/Ki(calpain) ratio of ≧100)

COc1ccc(Cl)cc1-c1ccn(-c2ncccc2C(=O)NC(Cc2ccccc2)C(=O)C(N)=O)n1 (centres unmarked) [Example 131, N-[3-Amino-2,3-dioxo-1-(phenylmethyl)propyl]-2-{3-[5-chloro-2-(methyloxy)phenyl]-1H-pyrazol-1-yl}pyridine-3-carboxamide]
Sel cat. L: Ki(cathepsin L)/Ki(calpain) ratio (cathepsin L): ++ (++ means a Ki(cathepsin L)/Ki(calpain) ratio of ≧50)
Sel cat. B: Ki(cathepsin B)/Ki(calpain) ratio (cathepsin B): ++ (++ means a Ki(cathepsin B)/Ki(calpain) ratio of ≧30)
Sel cat. K: Ki(cathepsin K)/Ki(calpain) ratio (cathepsin K): ++ (++ means a Ki(cathepsin K)/Ki(calpain) ratio of ≧30)
Sel cat. S: Ki(cathepsin S)/Ki(calpain) ratio (cathepsin S): ++ (++ means a Ki(cathepsin S)/Ki(calpain) ratio of ≧100)

NC(=O)C(=O)C(Cc1ccccc1)NC(=O)c1cccnc1-n1ccc(-c2ccc(Cl)cc2Cl)n1 (centres unmarked) [Example 79, N-(3-Amino-1-benzyl-2,3-dioxopropyl)-2-[3-(2,4-dichlorophenyl)-1H-pyrazol-1-yl]nicotinamide]
Sel cat. L: Ki(cathepsin L)/Ki(calpain) ratio (cathepsin L): ++ (++ means a Ki(cathepsin L)/Ki(calpain) ratio of ≧50)
Sel cat. B: Ki(cathepsin B)/Ki(calpain) ratio (cathepsin B): ++ (++ means a Ki(cathepsin B)/Ki(calpain) ratio of ≧30)
Sel cat. K: Ki(cathepsin K)/Ki(calpain) ratio (cathepsin K): ++ (++ means a Ki(cathepsin K)/Ki(calpain) ratio of ≧30)
Sel cat. S: Ki(cathepsin S)/Ki(calpain) ratio (cathepsin S): ++ (++ means a Ki(cathepsin S)/Ki(calpain) ratio of ≧100)

NC(=O)C(=O)C(Cc1ccc(F)cc1)NC(=O)c1cccnc1-n1ccc(-c2ccc(Cl)cc2Cl)n1 (centres unmarked) [Example 114, N-{-3-Amino-1-[(4-fluorophenyl)methyl]-2,3-dioxopropyl}-2-[3-(2,4-dichlorophenyl)-1H-pyrazol-1-yl]pyridine-3-carboxamide]
Sel cat. L: Ki(cathepsin L)/Ki(calpain) ratio (cathepsin L): ++ (++ means a Ki(cathepsin L)/Ki(calpain) ratio of ≧50)
Sel cat. B: Ki(cathepsin B)/Ki(calpain) ratio (cathepsin B): ++ (++ means a Ki(cathepsin B)/Ki(calpain) ratio of ≧30)
Sel cat. K: Ki(cathepsin K)/Ki(calpain) ratio (cathepsin K): ++ (++ means a Ki(cathepsin K)/Ki(calpain) ratio of ≧30)
Sel cat. S: Ki(cathepsin S)/Ki(calpain) ratio (cathepsin S): ++ (++ means a Ki(cathepsin S)/Ki(calpain) ratio of ≧100)

N-(3-Amino-1-{[4-(methyloxy)phenyl]methyl}-2,3-dioxopropyl)-2-{3-[3-(trifluoromethyl)phenyl]-1H-pyrazol-1-yl}pyridine-3-carboxamide [Example 126]
Sel cat. L: Ki(cathepsin L)/Ki(calpain) ratio (cathepsin L): ++ (++ means a Ki(cathepsin L)/Ki(calpain) ratio of ≧50)
Sel cat. B: Ki(cathepsin B)/Ki(calpain) ratio (cathepsin B): ++ (++ means a Ki(cathepsin B)/Ki(calpain) ratio of ≧30)
Sel cat. K: Ki(cathepsin K)/Ki(calpain) ratio (cathepsin K): ++ (++ means a Ki(cathepsin K)/Ki(calpain) ratio of ≧30)
Sel cat. S: Ki(cathepsin S)/Ki(calpain) ratio (cathepsin S): ++ (++ means a Ki(cathepsin S)/Ki(calpain) ratio of ≧100)

NC(=O)C(=O)C(Cc1ccccc1)NC(=O)c1cccnc1-n1ccc(-c2cccc(N3CCOCC3)c2)n1 (centres unmarked) [Example 58, N-(3-Amino-1-benzyl-2,3-dioxopropyl)-2-[3-(3-morpholin-4-ylphenyl)-1H-pyrazol-1-yl]nicotinamide]
Sel cat. L: Ki(cathepsin L)/Ki(calpain) ratio (cathepsin L): ++ (++ means a Ki(cathepsin L)/Ki(calpain) ratio of ≧50)
Sel cat. B: Ki(cathepsin B)/Ki(calpain) ratio (cathepsin B): + (+ means 10≦Ki(cathepsin B)/Ki(calpain)<30)
Sel cat. K: Ki(cathepsin K)/Ki(calpain) ratio (cathepsin K): + (+ means 10≦Ki(cathepsin K)/Ki(calpain)<30)
Sel cat. S: Ki(cathepsin S)/Ki(calpain) ratio (cathepsin S): ++ (++ means a Ki(cathepsin S)/Ki(calpain) ratio of ≧100)

NC(=O)C(=O)C(Cc1ccccc1)NC(=O)c1cccnc1-n1ccc(C23CC4CC(CC(C4)C2)C3)n1 (centres unmarked) [Example 193, N-[3-Amino-2,3-dioxo-1-(phenylmethyl)propyl]-2-(3-tricyclo[3.3.1.1^3,7]dec-1-yl-1H-pyrazol-1-yl)pyridine-3-carboxamide]
Sel cat. L: Ki(cathepsin L)/Ki(calpain) ratio (cathepsin L): ++ (++ means a Ki(cathepsin L)/Ki(calpain) ratio of ≧50)
Sel cat. B: Ki(cathepsin B)/Ki(calpain) ratio (cathepsin B): ++ (++ means a Ki(cathepsin B)/Ki(calpain) ratio of ≧30)
Sel cat. K: Ki(cathepsin K)/Ki(calpain) ratio (cathepsin K): ++ (++ means a Ki(cathepsin K)/Ki(calpain) ratio of ≧30)
Sel cat. S: Ki(cathepsin S)/Ki(calpain) ratio (cathepsin S): ++ (++ means a Ki(cathepsin S)/Ki(calpain) ratio of ≧100)

COc1ccc(CC(NC(=O)c2cccnc2-n2ccc(-c3ccc(F)cc3F)n2)C(=O)C(N)=O)cc1 (centres unmarked) [Example 97, N-(3-Amino-1-{[4-(methyloxy)phenyl]methyl}-2,3-dioxopropyl)-2-[3-(2,4-difluorophenyl)-1H-pyrazol-1-yl]pyridine-3-carboxamide]
Sel cat. L: Ki(cathepsin L)/Ki(calpain) ratio (cathepsin L): ++ (++ means a Ki(cathepsin L)/Ki(calpain) ratio of ≧50)
Sel cat. B: Ki(cathepsin B)/Ki(calpain) ratio (cathepsin B): ++ (++ means a Ki(cathepsin B)/Ki(calpain) ratio of ≧30)
Sel cat. K: Ki(cathepsin K)/Ki(calpain) ratio (cathepsin K): + (+ means 10≦Ki(cathepsin K)/Ki(calpain)<30)
Sel cat. S: Ki(cathepsin S)/Ki(calpain) ratio (cathepsin S): ++ (++ means a Ki(cathepsin S)/Ki(calpain) ratio of ≧100)

NC(=O)C(=O)C(Cc1ccccc1)NC(=O)c1cccnc1-n1ccc(-c2ccccc2Cl)n1 (centres unmarked) [Example 54, N-(3-Amino-1-benzyl-2,3-dioxopropyl)-2-[3-(2-chlorophenyl)-1H-pyrazol-1-yl]nicotinamide]
Sel cat. L: Ki(cathepsin L)/Ki(calpain) ratio (cathepsin L): ++ (++ means a Ki(cathepsin L)/Ki(calpain) ratio of ≧50)
Sel cat. B: Ki(cathepsin B)/Ki(calpain) ratio (cathepsin B): ++ (++ means a Ki(cathepsin B)/Ki(calpain) ratio of ≧30)
Sel cat. K: Ki(cathepsin K)/Ki(calpain) ratio (cathepsin K): ++ (++ means a Ki(cathepsin K)/Ki(calpain) ratio of ≧30)
Sel cat. S: Ki(cathepsin S)/Ki(calpain) ratio (cathepsin S): ++ (++ means a Ki(cathepsin S)/Ki(calpain) ratio of ≧100)

NC(=O)C(=O)C(Cc1ccccc1)NC(=O)c1cccnc1-n1ccc(-c2c(F)ccc(Cl)c2Cl)n1 (centres unmarked) [Example 120, N-[3-Amino-2,3-dioxo-1-(phenylmethyl)propyl]-2-[3-(2,3-dichloro-6-fluorophenyl)-1H-pyrazol-1-yl]pyridine-3-carboxamide]
Sel cat. L: Ki(cathepsin L)/Ki(calpain) ratio (cathepsin L): + (+ means 30≦Ki(cathepsin L)/Ki(calpain)<50)
Sel cat. B: Ki(cathepsin B)/Ki(calpain) ratio (cathepsin B): ++ (++ means a Ki(cathepsin B)/Ki(calpain) ratio of ≧30)
Sel cat. K: Ki(cathepsin K)/Ki(calpain) ratio (cathepsin K): ++ (++ means a Ki(cathepsin K)/Ki(calpain) ratio of ≧30)
Sel cat. S: Ki(cathepsin S)/Ki(calpain) ratio (cathepsin S): ++ (++ means a Ki(cathepsin S)/Ki(calpain) ratio of ≧100)

COc1ccc2c(c1)-c1nn(-c3ncccc3C(=O)NC(Cc3ccccc3)C(=O)C(N)=O)cc1CO2 (centres unmarked) [Example 183, N-[3-Aamino-2,3-dioxo-1-(phenylmethyl)propyl]-2-[8-(methyloxy)chromeno[4,3-c]pyrazol-2(4H)-yl]pyridine-3-carboxamide]
Sel cat. L: Ki(cathepsin L)/Ki(calpain) ratio (cathepsin L): ++ (++ means a Ki(cathepsin L)/Ki(calpain) ratio of ≧50)
Sel cat. B: Ki(cathepsin B)/Ki(calpain) ratio (cathepsin B): + (+ means 10≦Ki(cathepsin B)/Ki(calpain)<30)
Sel cat. K: Ki(cathepsin K)/Ki(calpain) ratio (cathepsin K): + (+ means 10≦Ki(cathepsin K)/Ki(calpain)<30)
Sel cat. S: Ki(cathepsin S)/Ki(calpain) ratio (cathepsin S): ++ (++ means a Ki(cathepsin S)/Ki(calpain) ratio of ≧100)

NC(=O)C(=O)C(Cc1ccc(OC(F)(F)F)cc1)NC(=O)c1cccnc1-n1ccc(-c2ccc(F)cc2)n1 (centres unmarked) [Example 132, N-[3-Amino-2,3-dioxo-1-({4-[(trifluoromethyl)oxy]phenyl}methyl)propyl]-2-[3-(4-fluorophenyl)-1H-pyrazol-1-yl]pyridine-3-carboxamide]
Sel cat. L: Ki(cathepsin L)/Ki(calpain) ratio (cathepsin L): ++ (++ means a Ki(cathepsin L)/Ki(calpain) ratio of ≧50)
Sel cat. B: Ki(cathepsin B)/Ki(calpain) ratio (cathepsin B): + (+ means 10≦Ki(cathepsin B)/Ki(calpain)<30)
Sel cat. K: Ki(cathepsin K)/Ki(calpain) ratio (cathepsin K): ++ (++ means a Ki(cathepsin K)/Ki(calpain) ratio of ≧30)
Sel cat. S: Ki(cathepsin S)/Ki(calpain) ratio (cathepsin S): ++ (++ means a Ki(cathepsin S)/Ki(calpain) ratio of ≧100)

COc1ccc(CC(NC(=O)c2cccnc2-n2ccc(-c3ccccc3F)n2)C(=O)C(N)=O)cc1 (centres unmarked) [Example 92, N-(3-Amino-1-{[4-(methyloxy)phenyl]methyl}-2,3-dioxopropyl)-2-[3-(2-fluorophenyl)-1H-pyrazol-1-yl]pyridine-3-carboxamide]
Sel cat. L: Ki(cathepsin L)/Ki(calpain) ratio (cathepsin L): ++ (++ means a Ki(cathepsin L)/Ki(calpain) ratio of ≧50)
Sel cat. B: Ki(cathepsin B)/Ki(calpain) ratio (cathepsin B): ++ (++ means a Ki(cathepsin B)/Ki(calpain) ratio of ≧30)
Sel cat. K: Ki(cathepsin K)/Ki(calpain) ratio (cathepsin K): + (+ means 10≦Ki(cathepsin K)/Ki(calpain)<30)
Sel cat. S: Ki(cathepsin S)/Ki(calpain) ratio (cathepsin S): ++ (++ means a Ki(cathepsin S)/Ki(calpain) ratio of ≧100)
